Measured values: patent US9187486B2 (AMGEN INC., priority 2011, dated 2015)
Like-named read-outs stand apart in the source and are kept apart here.

Columns and labels:
Pim-1 [1] = target: T1, Pim-1 (Homo sapiens (Human), UniProt P11309); assay: Pim-Mn enzyme assay (HTRF, 384-well), Pim-1; type: biochemical; details: Pim-1 enzyme 5 pM, ATP […], read-out: Pim-1-Mn IC50 IP
Excerpt: (§1) Full-length human cDNAs encoding Pim-1 (MGC ID 3913552) or Pim-2 (IMAGE ID 5092935) were purchased from Invitrogen, Carlsbad, Calif. These cDNAs were used as templates in PCR reactions to produce full-length DNA clones of the PIMs. Oligonucleotide PCR primers for Pim-1 were 5′-[…]-3′ and 5′-[…]-3′. Oligonucleotide PCR primers for Pim-2 were 5′-[…]-3′ and 5′-[…]-3′. PCR products were digested with BclI and EcoRI for Pim-1 and BamHI and EcoRI for Pim-2 and ligated into a modified baculovirus transfer vector (pFastBac 1) cleaved with BamHI and EcoRI. […]
(§2) The frozen cell pellets were thawed by stirring in chilled lysis buffer (0.05 M HEPES, pH 8.0, 0.25 M NaCl, 0.01 M 2-mercaptoethanol, 10% (w/v) glycerol, 0.5% (v/v) protease inhibitor cocktail (Sigma P-8340) at a ratio of 1 L/200 g cells until homogeneous. The thawed suspension was applied to a microfluidizer at 10,000 PSI to disrupt the cells and the whole lysates were clarified by centrifugation at 50,000×g for 90 min, 4° C. Imidazole was added to the clarified lysate to a final concentration of 2.5 mM and the lysate was mixed with 10 mL of Talon resin (Clontech) and the slurry rocked gently overnight at 4° C. […] Fractions were analyzed by SDS-PAGE and those containing the protein of interest were pooled and concentrated. […] The protein eluted at a retention time indicative of it being monomeric and fractions were analyzed by SDS-PAGE. […]

Pim-2 [2] = target: T2, Pim-2 (Homo sapiens (Human), UniProt Q9P1W9); assay: Pim-Mn enzyme assay (HTRF, 384-well), Pim-2; type: biochemical; details: Pim-2 enzyme 0.5 pM, ATP […], read-out: Pim-2-Mn IC50 IP
T2 sequence (Q9P1W9 whole entry): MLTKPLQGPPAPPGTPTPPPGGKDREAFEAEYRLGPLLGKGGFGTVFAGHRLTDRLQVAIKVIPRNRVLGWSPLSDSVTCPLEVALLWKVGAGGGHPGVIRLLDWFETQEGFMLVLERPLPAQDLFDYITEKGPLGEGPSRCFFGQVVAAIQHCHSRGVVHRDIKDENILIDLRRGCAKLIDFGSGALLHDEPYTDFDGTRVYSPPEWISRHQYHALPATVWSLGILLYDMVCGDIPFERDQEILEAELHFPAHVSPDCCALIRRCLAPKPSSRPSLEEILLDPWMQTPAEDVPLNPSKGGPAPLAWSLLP
Excerpt: as §1, §2

Pim-1 [3] = target: T1, Pim-1; assay: Pim enzyme assay (HTRF, phosphorylation of biotinylated-BAD (S112) peptide), Pim-1; type: biochemical
Procedure, shortened: (§3)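 Full-length human Pim-1 or Pim-2 with an N-terminal His6 tag, expressed in Sf9 or E. coli and purified as monomer. HTRF read-out: biotinylated BAD (S112) peptide phosphorylation detected with streptavidin-APC plus Eu-anti-phospho-BAD(S112) antibody, excitation 337 nm, emission 665 nm.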

Pim-2 [4] = target: T2, Pim-2; assay: Pim enzyme assay (HTRF, phosphorylation of biotinylated-BAD (S112) peptide), Pim-2; type: biochemical
Procedure, shortened: as §3

[5] = tested on: KMS-12-BM myeloma cell line; assay: Pim cell assay: phospho-BAD (S112) and total BAD in KMS-12-BM cells; type: cell-based; details: 1 hour and 50 minutes incubation
Procedure, shortened: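 KMS-12-BM myeloma cells, after overnight culture, got a 10-point compound dose series (0.3% DMSO) for 1 h 50 min at 37 °C. Lysates measured for phospho-BAD (S112) and total BAD by MSD immunoassay; % phosphoprotein = 2×phospho/(phospho+total)×100.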

[6] = full length recombinant Pim-1, biotinylated-BAD (S112) peptide, HTRF, 96-well, read-out: Pim-1 IC50 IP
[7] = full length recombinant Pim-2, biotinylated-BAD (S112) peptide, HTRF, 96-well, read-out: Pim-2 IC50 IP
[8] = Homo sapiens, KMS-12-BM, read-out: KMS-12-BM IC50 IP
[9] = full length recombinant Pim-1, biotinylated-BAD (S112) peptide, HTRF, read-out: Pim_1_IC50
[10] = full length recombinant Pim-2, biotinylated-BAD (S112) peptide, HTRF, read-out: Pim2_IC50
[11] = Homo sapiens, KMS-12-BM, read-out: KMS12_Cell_IC50

T1 sequence (P11309 whole entry): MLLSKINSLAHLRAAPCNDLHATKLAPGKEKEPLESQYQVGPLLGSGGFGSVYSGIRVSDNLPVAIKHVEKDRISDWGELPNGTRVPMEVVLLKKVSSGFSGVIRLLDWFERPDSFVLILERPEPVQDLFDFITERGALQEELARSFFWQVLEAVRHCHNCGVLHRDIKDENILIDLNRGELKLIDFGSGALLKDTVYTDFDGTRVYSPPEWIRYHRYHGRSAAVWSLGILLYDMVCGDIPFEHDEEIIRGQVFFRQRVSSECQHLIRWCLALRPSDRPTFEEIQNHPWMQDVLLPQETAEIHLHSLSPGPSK

Fc1cccc(F)c1-c1ccc2cnc(Nc3cnccc3C3=CCNCC3)n2n1 [Example 105, 2-(2,6-Difluorophenyl)-N-(1′,2′,3′,6′-tetrahydro-[4,4′-bipyridin]-3-yl)imidazo[1,5-b]pyridazin-7-amine bis(2,2,2-trifluoroacetate)]
IC50 (Pim-1 [1]): 35 nM | IC50 (Pim-2 [2]): 1050 nM

C[C@@H]1CN(c2ccncc2Nc2ncc3ccc(-c4c(F)cccc4F)nn23)C[C@@H](N)[C@H]1O [Example 41, (3R,4S,5R)-3-amino-1-(3-((2-(2,6-difluorophenyl)imidazo[1,5-b]pyridazin-7-yl)amino)-4-pyridinyl)-5-methyl-4-piperidinol]
IC50 (Pim-1 [3]; [6]): 0.1 nM | IC50 (Pim-2 [4]; [7]): 0.5 nM | IC50 [5, 8]: 148 nM

Cc1cc(N)cc(-c2ccncc2Nc2ncc3ccc(-c4c(F)cccc4F)nn23)c1 [Example 42, N-(4-(3-amino-5-methylphenyl)-3-pyridinyl)-2-(2,6-difluorophenyl)imidazo[1,5-b]pyridazin-7-amine]
IC50 (Pim-1 [3]; [6]): 8.6 nM | IC50 (Pim-2 [4]; [7]): 34.4 nM | IC50 [5, 8]: 9860 nM

Cc1noc(C)c1-c1ccncc1Nc1ncc2ccc(-c3c(F)cccc3F)nn12 [Example 106, 2-(2,6-Difluorophenyl)-N-(4-(3,5-dimethylisoxazol-4-yl)pyridin-3-yl)imidazo[1,5-b]pyridazin-7-amine bis(2,2,2-trifluoroacetate)]
IC50 (Pim-1 [1]): 221 nM | IC50 (Pim-2 [2]): > 5000 nM

Nc1cc(-c2ccncc2Nc2ncc3ccc(-c4c(F)cccc4F)nn23)ccn1 [Example 30, N3′-(2-(2,6-difluorophenyl)imidazo[1,5-b]pyridazin-7-yl)-4,4′-bipyridine-2,3′-diamine]
IC50 (Pim-1 [3]; [9]): 7 nM | IC50 (Pim-2 [4]; [10]): 185 nM | IC50 [5, 11]: 21500 nM

C[C@H]1CCN(c2ccncc2Nc2ncc3ccc(-c4c(F)cccc4F)nn23)C[C@H]1N (single isomer, unassigned) [Example 98, N-(4-((cis)-3-amino-4-methylpiperidin-1-yl)pyridin-3-yl)-2-(2,6-difluorophenyl)imidazo[1,5-b]pyridazin-7-amine bis(2,2,2-trifluoroacetate)]
IC50 (Pim-1 [3]; read-out: Pim-1 IC50 IP): 2.8 nM | IC50 (Pim-2 [4]; read-out: Pim-2 IC50 IP): 15.7 nM | IC50 ([5]; bis(2,2,2-trifluoroacetate), read-out: KMS-12-BM IC50 IP): 12100 nM

C[C@H]1CN(c2ccncc2Nc2ncc3ccc(-c4nccs4)nn23)C[C@@H](N)[C@@H]1O [Example 21, (3R,4R,5S)-3-amino-5-methyl-1-(3-((2-(1,3-thiazol-2-yl)imidazo[1,5-b]pyridazin-7-yl)amino)-4-pyridinyl)-4-piperidinol]
IC50 (Pim-1 [3]; [9]): 0.3 nM | IC50 (Pim-2 [4]; [10]): 0.6 nM | IC50 [5, 11]: 209 nM

C[C@@H]1C[C@H](N)CN(c2ccncc2Nc2ncc3ccc(-c4ncccc4Cl)nn23)C1 [Example 79]
IC50 (Pim-1 [3]; [6]): 0.2 nM | IC50 (Pim-2 [4]; [7]): 0.5 nM | IC50 [5, 8]: 132 nM

N[C@H]1CCCN(c2ccncc2Nc2ncc3ccc(-c4cccnc4F)nn23)C1 [Example 7, N-(4-((3S)-3-amino-1-piperidinyl)-3-pyridinyl)-2-(2-fluoro-3-pyridinyl)imidazo[1,5-b]pyridazin-7-amine]
IC50 (Pim-1 [3]; [9]): 0.9 nM | IC50 (Pim-2 [4]; [10]): 12 nM | IC50 [5, 11]: 6600 nM

C[C@@H]1C[C@H](N)CN(c2ccncc2Nc2ncc3ccc(-c4cc(C(=O)NC5CC5)ccc4F)nn23)C1 [Example 72, 3-(7-((4-((3S,5R)-3-amino-5-methyl-1-piperidinyl)-3-pyridinyl)amino)imidazo[1,5-b]pyridazin-2-yl)-N-cyclopropyl-4-fluorobenzamide]
IC50 (Pim-1 [3]; [6]): 0.1 nM | IC50 (Pim-2 [4]; [7]): 0.1 nM | IC50 [5, 8]: 86.4 nM

C[C@@H]1C[C@H](N)CN(c2ccncc2Nc2ncc3ccc(-c4ccccc4F)nn23)C1 (single isomer, unassigned) [Example 47, N-(4-((cis)-3-amino-5-methylpiperidin-1-yl)pyridin-3-yl)-2-(2-fluorophenyl)imidazo[1,5-b]pyridazin-7-amine tris(2,2,2-trifluoroacetate)]
IC50 (Pim-1 [3]; [6]): 7.7 nM | IC50 (Pim-2 [4]; [7]): 54.2 nM | IC50 ([5]; tris(2,2,2-trifluoroacetate), read-out: KMS-12-BM IC50 IP): 10200 nM
